Data taken from patent US5258386A (priority 1991, dated 1993).

Assays:
[1] = system: maximal electroshock seizures (MES); assay: Maximal electroshock seizure (MES) assay in rats, s.c. injection, tonic hindlimb extension (THE); format: in vivo, Male Sprague-Dawley rats; details: for % Responding (THE): s.c.; for ED50: sc, read-out: Anticonvulsant ED50
Protocol: The anticonvulsant activity of the present compounds was assessed by the method of inducing maximal electroshock seizures (MES) in rats using the standard testing protocol conditions hereinafter described:
Animals. Male Sprague-Dawley rats weighing 200-250 g obtained from Zivic Miller Laboratories, Alison Park, Pa., were used for all experiments. Upon delivery the animals were kept in individual pens housed in a temperature controlled laboratory. A standard 12-hour light-dark cycle was maintained. The animals were given food and water ad libitum.
Maximal electroshock seizure (MES) assay. Supramaximal (tonic hindlimb extension) seizures were induced in test rats by means of an electric shock apparatus. A current of 60 Hz and 50 mA was delivered transauricularly through miniature alligator clips attached to the pinna of each ear for 2.0 seconds. […] In general, MES causes a generalized convulsion characterized by an initial tonic forelimb extension (TFE) progressing immediately to tonic hindlimb extension (THE) followed by clonic jerking. The presence or absence of THE was recorded for each MES convulsion.
Experimental protocol. Two groups of animals with n=10 for each group were tested under the conditions described above. Compounds were administered to each test animal by a single subcutaneous injection. There were no signs of overt sedation, ataxia or motor impairment at any time during the MES assay after drug injection.

[2] = elevated doses; cited from earlier work
[3] = U.S. Pat. No. 4,552,962; cited from earlier work
[4] = in vivo, demethylation; dextrorphan is the major metabolite in man; cited from earlier work
[5] = in vivo; cited from earlier work
[6] = U.S. Pat. Nos. 4,898,860 and 4,906,638; cited from earlier work
[7] = Proconvulsant activity of dextromethorphan; details: doses above about 60 mg/kg, in mammals
[8] = in vivo; cited from earlier work; remark: listed apart in the source

Q: For `CN(C)c1ccc2c(c1)C13CCCCC1C(C2)N(C)CC3` (single isomer, unassigned; (+)) [Compound 7, (+)-3,3-Dimethylamino-17-methylmorphinan sesquitartrate], which “% Responding (THE)” value ([1]; 25 mg/kg, rat MES) is on record?
A: 65%

Q: What about the ED50 ([1]; rat MES, single s.c. injection) of the same compound?
A: > 25 mg/kg

Q: Which results are given for `COc1ccc2c(c1)[C@@]13CCCC[C@H]1[C@@H](C2)N(C)CC3` [Compound 1, (+)-3-methoxy-N-methylmorphinan]?
A: proconvulsant [2]: becomes proconvulsant; % Responding (THE) ([1]; 15 mg/kg, rat MES): 70%; % Responding (THE) ([1]; 30 mg/kg, rat MES): 70%; % Responding (THE) ([1]; 60 mg/kg, rat MES): 30%; inhibits seizures ([1]; about 60 mg/kg): about 70%; ED50 ([1]; rat MES, single s.c. injection): 38 mg/kg; antitussive activity [3]: potent antitussive agent; metabolism to dextrorphan [4]: metabolizes rapidly by demethylation in vivo; anticonvulsant activity [5]: not very potent as an anticonvulsant agent; potentiating effect on antiepileptic or antiseizure compounds [6]: potentiating effect; proconvulsant activity [7]: exhibits proconvulsant activity

Q: With `CN1CC[C@]23CCCC[C@H]2[C@H]1Cc1ccc(O)cc13` [Compound 2, (+)-3-hydroxy-N-methylmorphinan] as the compound, how does the behavioral side effects [8] read?
A: harmful behavioral side effects

Q: And the “Anticonvulsant ED50” value ([1]; rat MES, single s.c. injection)?
A: 5 mg/kg

Q: And the anticonvulsant activity [5]?
A: some anticonvulsant activity

Q: Which “% Responding (THE)” value ([1]; 12.5 mg/kg, rat MES) does the source give for `CN1CC[C@]23CCCC[C@H]2[C@H]1Cc1ccc(N)cc13.Cl.Cl` [Compound 5, (+)-3-Amino-17-methylmorphinan di-HCl] here?
A: 100%

Q: And the “% Responding (THE)” value ([1]; 25 mg/kg, rat MES)?
A: 40%

Q: And the ED50 ([1]; rat MES, single s.c. injection)?
A: 25 mg/kg
